Laboratory results published in ChEMBL document CHEMBL1151876, “Constrained (l-)-S-adenosyl-l-homocysteine (SAH) analogues as DNA methyltransferase inhibitors” (Bioorg Med Chem Lett, 2009).

What was measured:
[1] = target: T1, DNA (cytosine-5)-methyltransferase 1 (Homo sapiens, UniProt P26358)
Description: Inhibition of human recombinant DNMT1

[2] = target: DNA (cytosine-5)-methyltransferase 3B (Homo sapiens, UniProt Q9UBC3)
Description: Inhibition of human recombinant DNMT3b2

[3] = target: T1, DNA (cytosine-5)-methyltransferase 1; conditions: 45 uM
Description: Inhibition of human recombinant DNMT1 at 45 uM

T1 sequence (P26358 whole entry): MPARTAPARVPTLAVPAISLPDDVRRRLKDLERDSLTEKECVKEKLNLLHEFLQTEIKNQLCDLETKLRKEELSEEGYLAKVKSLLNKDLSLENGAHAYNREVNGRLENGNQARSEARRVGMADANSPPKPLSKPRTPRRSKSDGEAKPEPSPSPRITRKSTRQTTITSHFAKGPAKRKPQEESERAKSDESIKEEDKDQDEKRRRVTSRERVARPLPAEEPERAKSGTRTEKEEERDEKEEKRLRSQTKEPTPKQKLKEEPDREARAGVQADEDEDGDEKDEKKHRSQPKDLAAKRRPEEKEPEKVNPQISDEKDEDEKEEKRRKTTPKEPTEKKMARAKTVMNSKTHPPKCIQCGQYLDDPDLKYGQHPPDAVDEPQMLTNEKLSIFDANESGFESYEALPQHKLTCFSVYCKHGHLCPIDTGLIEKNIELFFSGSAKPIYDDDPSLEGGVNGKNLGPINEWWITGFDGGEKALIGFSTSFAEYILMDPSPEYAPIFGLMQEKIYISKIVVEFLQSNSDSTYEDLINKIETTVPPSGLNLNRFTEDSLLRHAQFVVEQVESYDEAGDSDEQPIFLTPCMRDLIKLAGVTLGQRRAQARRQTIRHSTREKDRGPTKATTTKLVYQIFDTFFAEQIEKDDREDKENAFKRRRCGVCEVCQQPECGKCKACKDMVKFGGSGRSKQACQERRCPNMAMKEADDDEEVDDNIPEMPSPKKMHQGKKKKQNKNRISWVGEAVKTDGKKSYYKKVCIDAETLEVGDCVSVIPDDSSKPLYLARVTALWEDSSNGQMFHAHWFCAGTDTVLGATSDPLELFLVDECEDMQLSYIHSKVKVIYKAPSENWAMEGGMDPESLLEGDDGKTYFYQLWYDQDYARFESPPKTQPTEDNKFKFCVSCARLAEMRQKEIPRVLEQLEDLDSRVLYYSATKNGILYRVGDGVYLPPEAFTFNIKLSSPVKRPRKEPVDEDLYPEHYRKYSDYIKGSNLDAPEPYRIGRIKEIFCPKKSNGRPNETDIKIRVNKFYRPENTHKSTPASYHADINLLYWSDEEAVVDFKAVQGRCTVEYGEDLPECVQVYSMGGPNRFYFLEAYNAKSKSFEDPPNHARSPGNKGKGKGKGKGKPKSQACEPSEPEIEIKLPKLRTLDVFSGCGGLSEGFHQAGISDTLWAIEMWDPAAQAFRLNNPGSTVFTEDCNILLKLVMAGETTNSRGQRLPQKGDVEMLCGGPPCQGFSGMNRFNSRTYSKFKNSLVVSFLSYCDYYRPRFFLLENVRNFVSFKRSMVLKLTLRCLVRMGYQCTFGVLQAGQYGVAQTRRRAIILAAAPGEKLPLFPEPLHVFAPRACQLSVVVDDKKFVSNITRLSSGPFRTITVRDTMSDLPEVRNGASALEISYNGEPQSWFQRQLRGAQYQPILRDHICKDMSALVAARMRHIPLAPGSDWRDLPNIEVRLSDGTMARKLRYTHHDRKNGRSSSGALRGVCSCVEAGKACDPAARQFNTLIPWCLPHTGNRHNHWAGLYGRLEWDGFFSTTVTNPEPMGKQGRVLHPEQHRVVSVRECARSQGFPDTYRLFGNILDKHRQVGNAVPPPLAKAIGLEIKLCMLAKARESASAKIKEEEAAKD

| SMILES | IC50 [1] [µM] | IC50 [2] [µM] | inhibition [3] [%] |
| --- | --- | --- | --- |
| CN1C[C@@H](SC[C@H]2O[C@@H](n3cnc4c(N)ncnc43)[C@H](O)[C@@H]2O)C[C@H]1C(=O)O | > 100 |  |  |
| O=C(O)[C@@H]1C[C@H](SC[C@H]2O[C@@H](n3cnc4c(NCCc5ccc(-c6ccccc6)cc5)nc(Cl)nc43)[C@H](O)[C@@H]2O)CN1 | 2.5 |  |  |
| Nc1ncnc2c1ncn2[C@@H]1O[C@H](CSCC[C@H](N)C(=O)O)[C@@H](O)[C@H]1O [S-ADENOSYLHOMOCYSTEINE] |  | 0.2 |  |
| Nc1ncnc2c1ncn2[C@@H]1O[C@H](CS[C@H]2CCN[C@@H](C(=O)O)C2)[C@@H](O)[C@H]1O | > 100 |  |  |
| NCCSC[C@H]1O[C@@H](n2cnc3c(N)ncnc32)[C@H](O)[C@@H]1O | 18 |  |  |
| Nc1ncnc2c1ncn2[C@@H]1O[C@H](CS[C@@H]2CCNC2)[C@@H](O)[C@H]1O | 4.8 | 12 |  |
| Nc1ncnc2c1ncn2[C@@H]1O[C@H](CS[C@@H]2CN[C@H](C(=O)O)C2)[C@@H](O)[C@H]1O | 1.1 | 0.3 |  |
| NCCCSC[C@H]1O[C@@H](n2cnc3c(N)ncnc32)[C@H](O)[C@@H]1O | > 45 | 17 |  |
| Nc1ncnc2c1ncn2[C@@H]1O[C@H](CS[C@H]2CN[C@H](C(=O)O)C2)[C@@H](O)[C@H]1O | > 100 | 54 |  |
| Nc1nc(Cl)nc2c1ncn2C1O[C@H](CS[C@H]2CCNC2)[C@@H](O)[C@H]1O (single isomer, unassigned) |  | > 45 |  |
| NC(=O)[C@@H]1C[C@H](SC[C@H]2O[C@@H](n3cnc4c(N)ncnc43)[C@H](O)[C@@H]2O)CN1 |  |  | 1 |
| COC(=O)[C@@H]1C[C@H](SC[C@H]2O[C@@H](n3cnc4c(N)ncnc43)[C@H](O)[C@@H]2O)CN1C | 4.5 |  |  |
| Nc1ncnc2c1ncn2[C@@H]1O[C@H](CS[C@@H]2CCC[C@@H]2N)[C@@H](O)[C@H]1O | 94 |  |  |
| Nc1ncnc2c1ncn2[C@@H]1O[C@H](CS[C@@H]2CCN[C@H](C(=O)O)C2)[C@@H](O)[C@H]1O | > 100 |  |  |
| CN1CC[C@@H](SC[C@H]2O[C@@H](n3cnc4c(N)ncnc43)[C@H](O)[C@@H]2O)C1 | > 10 |  |  |
| COC(=O)[C@@H]1C[C@H](SC[C@H]2O[C@@H](n3cnc4c(N)ncnc43)[C@H](O)[C@@H]2O)CN1 | 4 |  |  |
| Nc1ncnc2c1ncn2[C@@H]1O[C@H](CS[C@H]2CCNC2)[C@@H](O)[C@H]1O | 44 | 26 |  |
| Nc1ncnc2c1ncn2[C@@H]1O[C@H](CS[C@H]2CCN[C@H](C(=O)O)C2)[C@@H](O)[C@H]1O | 8 |  |  |
| Nc1ncnc2c1ncn2[C@@H]1O[C@H](CSC2CNC2)[C@@H](O)[C@H]1O |  | > 100 |  |
| Nc1nc(Cl)nc2c1ncn2C1O[C@H](CS[C@@H]2CN[C@H](C(=O)O)C2)[C@@H](O)[C@H]1O (single isomer, unassigned) | 0.82 |  |  |
| Nc1ncnc2c1ncn2[C@@H]1O[C@H](CS[C@H]2CCCNC2)[C@@H](O)[C@H]1O |  |  | 18 |
